Eleven molecules from ChEMBL document CHEMBL1201862, “PubChem BioAssay data set” (2004) can be followed below.

Test systems include MCF7; TK-10; MDA-MB-435; K562; A549; EKVX; NCI-H23; CCRF-CEM; SNB-19; MDA-MB-231; LOX IMVI; SNB-75; NCI-H226; HCT-15; Hs-578T; NCI-H522; KM12; SK-MEL-5; SK-MEL-2; RXF 393.
What all share (experiment): NCI-60 cell line screen, 48 h

The structures appear in SMILES notation.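 Results reflect a 48-hour exposure of cells in 96-well plates to compound at five concentrations. Abbreviation: GI50, concentration required for 50% inhibition of growth.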 Activity calls are given as the source filed them. No stated cut-off is given here; in the data, active = GI50 up to about 1.1 µM and inactive = higher.

For the molecule `COc1ccc2cc(NC(=O)Nn3cnnc3)ccc2c1`, the GI50 is > 100 µM (inactive) with MCF7; > 100 µM (inactive) with TK-10; > 100 µM (inactive) in the assay with MDA-MB-435; > 100 µM (inactive) in the assay with K562; > 100 µM (inactive) in the assay on A549; 80.7 µM (inactive) with EKVX. Further, the GI50 in the assay with NCI-H23 was > 100 µM (inactive); with CCRF-CEM, > 100 µM (inactive); in the assay with SNB-19, > 100 µM (inactive); with MDA-MB-231, > 100 µM (inactive); with LOX IMVI it was > 100 µM (inactive); in the assay with SNB-75 it was 12.7 µM (inactive). In addition, the GI50 in the assay on NCI-H226 was > 100 µM (inactive); in the assay with HCT-15, over 100 µM; in the assay with Hs-578T it was > 100 µM (inactive); in the assay with NCI-H522, > 100 µM (inactive); in the assay with KM12, 92.5 µM (inactive); with SK-MEL-5, > 100 µM (inactive). Further, in the assay on SK-MEL-2, the GI50 was > 100 µM (inactive).

`Cc1nnc2n(c1=O)CCN2C`: the GI50 in the assay with MCF7, in the assay on TK-10, with MDA-MB-435, with K562, with A549 and in the assay with EKVX was > 100 µM (inactive) in each case. Also, the GI50 in the assay with NCI-H23 was > 100 µM (inactive); with CCRF-CEM, > 100 µM (inactive); with SNB-19, > 100 µM (inactive); in the assay with MDA-MB-231, > 100 µM (inactive); in the assay on LOX IMVI it was > 100 µM (inactive); with SNB-75, 89.7 µM (inactive). Also, the GI50 in the assay with NCI-H226 is > 100 µM (inactive); with RXF 393 it was > 100 µM (inactive); in the assay with HCT-15 it was over 100 µM; with Hs-578T, > 100 µM (inactive); in the assay on KM12 it was > 100 µM (inactive); with SK-MEL-5, > 100 µM (inactive). In addition, the GI50 in the assay with SK-MEL-2 is > 100 µM (inactive).

For the molecule `CCCCC(=O)N/S(=N/C(=O)c1ccccc1)C(Cl)(Cl)Cl` (stereo not given), the GI50 with MCF7, in the assay on TK-10, in the assay on MDA-MB-435, with K562, with A549 and with EKVX was > 100 µM (inactive) throughout. Also, the GI50 in the assay with NCI-H23, with CCRF-CEM, with SNB-19, in the assay on MDA-MB-231, in the assay on LOX IMVI and with SNB-75 was > 100 µM (inactive) in each case. Further, the GI50 with NCI-H226 was > 100 µM (inactive); in the assay with RXF 393, > 100 µM (inactive); in the assay on HCT-15 it was over 100 µM; with Hs-578T, > 100 µM (inactive); with KM12, > 100 µM (inactive); in the assay with SK-MEL-5 it was > 100 µM (inactive). For the same molecule, the GI50 in the assay with SK-MEL-2 is > 100 µM (inactive).

In the case of `O=C1/C(=C/c2ccc(Cl)cc2)CSc2ccccc21`, the GI50 was 2.26 µM (inactive) in the assay on MCF7; 42.2 µM (inactive) in the assay with TK-10; 4.86 µM (inactive) in the assay on MDA-MB-435; 3.37 µM (inactive) in the assay with K562; 45.5 µM (inactive) with A549; 21.3 µM (inactive) in the assay with NCI-H23. Also, the GI50 was 3.1 µM (inactive) with CCRF-CEM; 9.2 µM (inactive) with SNB-19; 19 µM (inactive) with MDA-MB-231; 2.68 µM (inactive) in the assay with LOX IMVI; 31.9 µM (inactive) with SNB-75; 17.4 µM (inactive) with NCI-H226. Further, the GI50 in the assay with RXF 393 is 18.2 µM (inactive); with HCT-15 it was 4.62 µM; in the assay with Hs-578T, 4.57 µM (inactive); in the assay with KM12, 10.1 µM (inactive); with SK-MEL-5, 20.6 µM (inactive); with SK-MEL-2, 15.7 µM (inactive).

In the case of `Cc1cccc(CNNC(=O)c2cc[n+]([BH2-]C#N)cc2)c1`, the GI50 with MCF7 is 36.5 µM (inactive); in the assay with TK-10, 53.7 µM (inactive); in the assay with MDA-MB-435, 28.3 µM (inactive); in the assay on K562, 26.9 µM (inactive); with A549 it was 39.1 µM (inactive); in the assay on EKVX, 36.4 µM (inactive). The GI50 was 18.6 µM (inactive) in the assay on NCI-H23; 23.9 µM (inactive) in the assay on CCRF-CEM; 48.2 µM (inactive) in the assay on SNB-19; 20.6 µM (inactive) with MDA-MB-231; 20.1 µM (inactive) in the assay with LOX IMVI; 21.7 µM (inactive) in the assay with SNB-75. Also, the GI50 is 23.9 µM (inactive) in the assay with NCI-H226; 22.4 µM (inactive) in the assay with RXF 393; 21.4 µM in the assay with HCT-15; 21.6 µM (inactive) in the assay with Hs-578T; 22.6 µM (inactive) with KM12; 17.2 µM (inactive) with SK-MEL-5. The GI50 with SK-MEL-2 is 34.9 µM (inactive).

As to `C=C[C@H]1CC[C@H]2[C@@H]3CC=C4C[C@@H](OC5OCC(O)C(O)C5O)CC[C@]4(C)[C@H]3CC[C@]12C` (stereo not given in full), the GI50 with MCF7 was 36.8 µM (inactive); with MDA-MB-435, 15.9 µM (inactive); with K562, 25.8 µM (inactive); in the assay on A549, 12.9 µM (inactive); in the assay on NCI-H23, 26.1 µM (inactive); in the assay with CCRF-CEM it was 24.8 µM (inactive). Moreover, the GI50 was 25.7 µM (inactive) in the assay with SNB-19; 11.4 µM (inactive) in the assay on MDA-MB-231; 10.8 µM (inactive) in the assay with LOX IMVI; 15.5 µM (inactive) in the assay on NCI-H226; 25.5 µM with HCT-15; 17.1 µM (inactive) with Hs-578T. Besides, the GI50 with NCI-H522 is 11.4 µM (inactive); with KM12, 12.9 µM (inactive); with SK-MEL-5, 18.2 µM (inactive); with SK-MEL-2, 16.6 µM (inactive).

For the molecule `CCC1(c2ccc(N3C(=O)c4cc(OC)c(OC)cc4C3=O)cc2)CCC(=O)NC1=O` (stereo not given), the GI50 in the assay with MCF7, with TK-10, in the assay on MDA-MB-435, in the assay on K562, in the assay on A549 and in the assay on EKVX was > 10 µM (inactive) in each case. The GI50 in the assay on NCI-H23, in the assay with CCRF-CEM, in the assay on SNB-19, in the assay on MDA-MB-231, with LOX IMVI and in the assay on NCI-H226 was > 10 µM (inactive) each time. Moreover, the GI50 in the assay on RXF 393 was > 10 µM (inactive); with HCT-15, over 10 µM; in the assay with Hs-578T it was > 10 µM (inactive); in the assay with KM12, > 10 µM (inactive); with SK-MEL-5 it was > 10 µM (inactive); in the assay on SK-MEL-2 it was > 10 µM (inactive).

Consider `O=C(Cn1c(=O)oc2ccccc21)N(c1ccccc1)c1ccccc1`, for which the GI50 with MCF7 was > 100 µM (inactive); in the assay with TK-10 it was > 100 µM (inactive); in the assay with MDA-MB-435, > 100 µM (inactive); with K562, > 100 µM (inactive); with EKVX, 11.9 µM (inactive); with NCI-H23, > 100 µM (inactive). Further, the GI50 in the assay with CCRF-CEM was > 100 µM (inactive); with SNB-19, > 100 µM (inactive); in the assay with MDA-MB-231 it was > 100 µM (inactive); with LOX IMVI, > 100 µM (inactive); in the assay with SNB-75, 11.5 µM (inactive); in the assay with NCI-H226 it was 15.2 µM (inactive). Further, the GI50 in the assay on RXF 393 is > 100 µM (inactive); in the assay with HCT-15, over 100 µM; in the assay with Hs-578T, 40.9 µM (inactive); with KM12, > 100 µM (inactive); with SK-MEL-5, > 100 µM (inactive); in the assay on SK-MEL-2, > 100 µM (inactive).

In the case of `CN(C(=O)Cc1ccc(Cl)c(Cl)c1)[C@H]1CCCC[C@@H]1[N+]1(C)CCCC1`, the GI50 in the assay with MCF7, in the assay on TK-10, with MDA-MB-435, in the assay on K562, in the assay with A549 and in the assay with EKVX was > 100 µM (inactive) each time. Moreover, the GI50 in the assay with NCI-H23 is > 100 µM (inactive); in the assay with CCRF-CEM it was 3.37 µM (inactive); with SNB-19, > 100 µM (inactive); in the assay with MDA-MB-231 it was > 100 µM (inactive); in the assay with LOX IMVI, > 100 µM (inactive); in the assay on NCI-H226, > 100 µM (inactive). Moreover, the GI50 in the assay on HCT-15 was over 100 µM; in the assay with Hs-578T, > 100 µM (inactive); in the assay with NCI-H522, > 100 µM (inactive); with KM12, > 100 µM (inactive); in the assay with SK-MEL-5 it was 71.6 µM (inactive); in the assay with SK-MEL-2 it was > 100 µM (inactive).

Regarding `CCC1OC2C(CC=C(C)C)=C3OC(C)(O)C(C)(CC)C(OC(=O)c4ccccc4)C3=C3OC(=O)C=C1C32` (stereo not given), the GI50 was 47.6 µM (inactive) in the assay on MCF7; 52 µM (inactive) with TK-10; 36.1 µM (inactive) in the assay with MDA-MB-435; 39 µM (inactive) in the assay with K562; 41.4 µM (inactive) in the assay on A549; 31.6 µM (inactive) with EKVX. The GI50 was 35.2 µM (inactive) with NCI-H23; 59.2 µM (inactive) in the assay on CCRF-CEM; 23.8 µM (inactive) in the assay with SNB-19; 22.4 µM (inactive) in the assay on MDA-MB-231; 18.4 µM (inactive) with LOX IMVI; 42.4 µM (inactive) in the assay on SNB-75. The GI50 in the assay with HCT-15 was 38.4 µM; with Hs-578T, 23.1 µM (inactive); in the assay on NCI-H522, 18.8 µM (inactive); with KM12, 39.9 µM (inactive); in the assay with SK-MEL-5, 19.8 µM (inactive); in the assay with SK-MEL-2, 22.8 µM (inactive).

On to `CC(=O)Oc1cc2oc(=O)cc(C)c2cc1OC(C)=O`, for which the GI50 was 38.8 µM (inactive) in the assay on MCF7; 44.5 µM (inactive) in the assay on TK-10; 48.4 µM (inactive) in the assay on MDA-MB-435; 55.7 µM (inactive) with K562; 37.3 µM (inactive) with A549; 52.5 µM (inactive) with EKVX. Further, the GI50 is 75.2 µM (inactive) in the assay with NCI-H23; 16.7 µM (inactive) in the assay on CCRF-CEM; > 100 µM (inactive) in the assay with SNB-19; 58.7 µM (inactive) with MDA-MB-231; 40.2 µM (inactive) in the assay on LOX IMVI; 48.4 µM (inactive) with SNB-75. Also, the GI50 in the assay with NCI-H226 was 40.2 µM (inactive); in the assay on HCT-15, 38.5 µM; in the assay with Hs-578T it was 68.4 µM (inactive); with KM12, 68.7 µM (inactive); with SK-MEL-5, > 100 µM (inactive); in the assay on SK-MEL-2 it was > 100 µM (inactive).
